IC50 data for three molecules are collected here from patent publication US10975075B2, “Imidazolonylquinolines and the use thereof as ATM kinase inhibitors” (priority 2015, dated 2021).

Some results are limits rather than exact numbers.

In this assay the test system is phosphorylation of CHK2 (phospho-Thr68) in HCT116 cells. Kind of assay: Cellular pCHK2 assay (bleomycin-induced phosphorylation of CHK2 phospho-Thr68, immunofluorescence high content). The assay is classed as cell-based, human. The following applies: 10 μM bleomycin, 4 h. The text has this:
For the identification of substances which inhibit the phosphorylation of the protein kinase CHK2 at the amino acid threonine 68, an immunofluorescence-based “high content” analysis assay was used in HCT116 cells.
In vitro cell-based immunofluorescence assay for the identification of inhibitors of bleomycin-induced phosphorylation of CHK2 (phospho-Thr68) in the human colon carcinoma cell line HCT116:
HCT116 cells are sown out in a defined cell density in 384-well plates in culture medium (DMEM high glucose, 2 mM GlutaMax, 1 mM Na pyruvate, 10% FCS) and incubated overnight at 37° C. and 10% of CO2. On the following day, the test substances are added in a defined concentration range (1 nM to 30 μM) in combination with 10 μM bleomycin, where the concentration of the solvent DMSO is kept constant at 0.5%. […] Parallel staining of DNA with propidium iodide enables determination of the cell count. The pCHK2 signal is detected using a high-content imager (Molecular Devices IMX Ultra) and automatic image analysis using the MetaXpress software belonging to the instrument. The number of cell nuclei which have a pCHK2 signal above a defined background is determined.
With `COc1cc2ncc3c(c2cc1-c1cnn(C)c1)n(-c1c(C)n[nH]c1C)c(=O)n3C` [Example 118, 1-(3,5-Dimethyl-1H-pyrazol-4-yl)-7-methoxy-3-methyl-8-(1-methyl-1H-pyrazol-4-yl)-1,3-dihydroimidazo[4,5-c]-quinolin-2-one], the IC50 lay in the range of 200 to 1000 nM.
As for `COc1cc2ncc3c(c2cc1-c1cn[nH]c1)n(-c1ccncc1C)c(=O)n3C` [Compound Example 19, 7-Methoxy-3-methyl-1-(3-methylpyridin-4-yl)-8-(1 H-pyrazol-4-yl)-1,3-dihydro-imidazo[4,5-c]quinolin-2-one], the figure is below 200 nM.
`COc1cc2ncc3c(c2cc1-c1cnn(C)c1)n(-c1cnn(C)c1)c(=O)n3C` [Compound Example 23, 7-Methoxy-3-methyl-1,8-bis-(1-methyl-1H-pyrazol-4-yl)-1,3-dihydroimidazo[4,5-c] quinolin-2-one]: the IC50 was below 200 nM.

One may read the IC50 as the concentration at which inhibition is half-maximal.
